In article PMC6017957, “Synthesis, Anti-Proliferative Activity Evaluation and 3D-QSAR Study of Naphthoquinone Derivatives as Potential Anti-Colorectal Cancer Agents” (Molecules : A Journal of Synthetic Chemistry and Natural …, 2018):
Read-outs that look alike come from different tables or passages of the source.

Columns and labels:
[1] = system: HT-29 colorectal cancer cells; test: MTT anti-proliferative assay against HT-29 cells; format: cell-based, human; conditions: for IC50: Homo sapiens; for Selectivity Index: SI = IC50Fibroblast/IC50HT-29cells; for Cytotoxic activity category against HT-29: classified by HT-29 IC50
Procedure: (§1) The toxicity of the thirty-six compounds was determined in vitro by means of the MTT assay. Doxorubicin, a drug widely used to treat different types of cancer, was employed as a positive control, whereas the solvent (DMSO) was used as negative control.
(§2) Test compounds were dissolved in DMSO to obtain stock solutions that were maintained as small aliquots at −20 °C. At time of drug addition, an aliquot was thawed and diluted to obtain the desired final maximum test concentration of 100 μM, with complete medium. The final percentage of DMSO in the wells was less than 1% (v/v). […] Anti-Proliferative Assay
(§3) Doxorubicin, a drug widely used to treat different types of cancer, was used as a positive control. After 48 h, the medium was removed and cells were incubated with MTT solution (0.25 mg/mL). Four hours later, the medium was carefully aspired and formazan crystals were dissolved in DMSO (100 μL). The OD550 was measured using a plate reader (Multiskan Go, Thermo Scientific, Waltham, MA, USA). […] The selectivity index (SI), was calculated as a ratio of IC50Fibroblast/IC50HT-29cells.
(§4) The results are expressed as the mean of triplicate measurements in at least two independent experiments.

fibroblasts PCS-201-012 = test: MTT cytotoxicity assay against normal dermal fibroblasts; format: cell-based; conditions: Fibroblast, value with 95% confidence interval, read-out: PCS-201-012 IC50 μM (95% CI)
Procedure: as §1, §2, §3, §4

[2] = HT-29, 48 h, MTT, 48 h, 0–100 µM, value with 95% confidence interval, read-out: HT-29 IC50 μM (95% CI)
[3] = HT-29, −logIC50 against HT-29, CoMFA training and test sets, read-out: pIC50 Experimental (converted)

| SMILES | IC50 [1, 2] | melting point | IC50 [1, 3] | Selectivity Index [1] | IC50 (fibroblasts PCS-201-012) | Cytotoxic activity category against HT-29 [1] |
| --- | --- | --- | --- | --- | --- | --- |
| CC1=C(Cl)C(=O)c2ccccc2C1=O [Compound 3c, 2-Chloro-3-methylnaphthalene-1,4-dione] | 11 µM | 158 °C | 11 µM | 0.90 | 9.92 µM |  |
| Cc1cc2c([nH]1)C(=O)c1ccccc1C2=O [Compound 2b, 2-Methyl-1H-benzo[f]indole-4,9-dione] | > 100 µM | 302 to 304 °C |  |  |  |  |
| O=C1c2ccccc2C(=O)c2[nH]ccc21 [Compound 2a, 1H-Benzo[f]indole-4,9-dione] | > 100 µM | 281 to 283 °C |  |  |  |  |
| COC(=O)C1C2=C(OC1c1ccccc1)C(=O)c1ccccc1C2=O (stereo not drawn) [Compound 4n, Methyl 4,9-Dioxo-2-phenyl-2,3,4,9-tetrahydronaphtho[2,3-b]furan-3-carboxylate] | > 100 µM | 167 °C |  |  |  |  |
| CCc1[nH]c2c(c1CC)C(=O)c1ccccc1C2=O [Compound 2d, 2,3-Diethyl-1H-benzo[f]indole-4,9-dione] | 68.7 µM | 205 to 209 °C | 68.7 µM | 0.75 | 51.5 µM |  |
| Cc1c(C(C)C)[nH]c2c1C(=O)c1ccccc1C2=O [Compound 2e, 3-Methyl-2-(propan-2-yl)-1H-benzo[f]indole-4,9-dione] | > 100 µM | 245 to 248 °C |  |  |  |  |
| CCc1cc2c([nH]1)C(=O)c1ccccc1C2=O [Compound 2c, 2-Ethyl-1H-benzo[f]indole-4,9-dione] | 40.2 µM | 200 to 207 °C | 40.2 µM |  | 79.4 µM | moderately active (moderately active (20 µM < IC50 ≤ 100 µM)) |
| CCCc1[nH]c2c(c1C)C(=O)c1ccccc1C2=O [Compound 2f, 3-Methyl-2-propyl-1H-benzo[f]indole-4,9-dione] | > 100 µM | 266 to 270 °C |  |  |  |  |

The next lines start with results.

| IC50 [1, 2] | melting point | IC50 [1, 3] | SMILES | Selectivity Index [1] | IC50 (fibroblasts PCS-201-012) | Cytotoxic activity category against HT-29 [1] |
| --- | --- | --- | --- | --- | --- | --- |
| 28.1 µM | 147 °C |  | C=C(C)C1(C)CC2=C(O1)c1ccccc1C(=O)C2=O (stereo not drawn) [Compound 4p, 2-Methyl-2-(prop-1-en-2-yl)-2,3-dihydronaphtho[1,2-b]furan-4,5-dione] | 0.15 | 4.19 µM |  |
| 88.1 µM | 150 °C |  | C=CC1(C)CC2=C(O1)c1ccccc1C(=O)C2=O (stereo not drawn) [Compound 4t, 2-Ethenyl-2-methyl-2,3-dihydronaphtho[1,2-b]furan-4,5-dione] | 0.22 | 19.7 µM |  |
| > 100 µM | 85 °C |  | CCCC/C=C/C1=C(O)C(=O)c2ccccc2C1=O [Compound 4c, 2-[(1E)-Hex-1-en-1-yl]-3-hydroxynaphthalene-1,4-dione] |  |  |  |
| 8.2 µM | 229.4 °C | 8.2 µM | O=C1c2ccccc2C(=O)c2occc21 [Compound 4j, Naphtho[2,3-b]furan-4,9-dione] | 1.01 | 8.28 µM | highly active |
| 18.1 µM | 91 °C | 18.1 µM | CC1(C)OC2=C(C(=O)C(=O)c3ccccc32)C1(C)C [Compound 4s, 2,2,3,3-Tetramethyl-2,3-dihydronaphtho[1,2-b]furan-4,5-dione] | 1.10 | 19.9 µM |  |
| > 10 µM | 220 °C |  | O=C1c2ccccc2C(=O)c2oc(-c3ccccc3)cc21 [Compound 4k, 2-Phenylnaphtho[2,3-b]furan-4,9-dione] |  |  |  |
| 9.16 µM | 64 °C | 9.16 µM | CCCCc1cc2c(o1)-c1ccccc1C(=O)C2=O [Compound 4i, 2-Butylnaphtho[1,2-b]furan-4,5-dione] | 0.42 | 3.86 µM | highly active |
| 25.8 µM | 135 °C |  | C=C(C)C1(C)CC2=C(O1)C(=O)c1ccccc1C2=O (stereo not drawn) [Compound 4o, 2-Methyl-2-(prop-1-en-2-yl)-2,3-dihydronaphtho[2,3-b]furan-4,9-dione] |  | 47.9 µM |  |
| > 100 µM | 107 °C |  | CC/C=C/C1=C(O)C(=O)c2ccccc2C1=O [Compound 4b, 2-[(1E)-But-1-en-1-yl]-3-hydroxynaphthalene-1,4-dione] |  |  |  |
| 34.9 µM | 145 °C |  | COC1(C(C)=O)CC2=C(O1)C(=O)c1ccccc1C2=O (stereo not drawn) [Compound 4l, 2-Acetyl-2-methoxy-2,3-dihydronaphtho[2,3-b]furan-4,9-dione] | 0.37 | 12.9 µM |  |
| 8.36 µM | 124 °C | 8.36 µM | Cc1cc2c(o1)-c1ccccc1C(=O)C2=O [Compound 4g, 2-Methylnaphtho[1,2-b]furan-4,5-dione] | 0.23 | 1.93 µM | highly active |
| 13.7 µM | 136 °C | 13.7 µM | CCc1cc2c(o1)-c1ccccc1C(=O)C2=O [Compound 4h, 2-Ethylnaphtho[1,2-b]furan-4,5-dione] | 0.27 | 3.68 µM | highly active |
